Experimental data: patent US11434205B2, “Substituted imidazole carboxylate derivatives and the use thereof” (priority 2018, dated 2022)

What was measured:
rats [1] = test: Loss of righting reflexes (LORR) assay in rats, ED50 by up and down method; assay type: in vivo, rat; conditions: tail vein, class symbols; for ED50: Rattus norvegicus
Protocol: The Anesthetic Activity of the Compounds was Assessed in Rats Using a Loss of Righting Reflexes (LORR) Assay
(§1) Adult male Sprague-Dawley rats (250-300 g) were selected for the experiment. […] The anesthesia effects of the compounds were assessed in rats using a LORR assay and a period >30 s was considered as an indicator of general anesthesia. Then the up and down method was used to determine 50% effective dose (ED50). The drugs were administered through the tail vein of rats in a volume of 0.6 mL and at a rate of 0.1 mL/s.

rats [2] = test system: rats
Protocol: as §1

rats [3] = test: Pharmacological characteristics at equivalent doses (2×ED50) in rats; conditions: 2×ED50, tail vein; for Adverse reactions: Red urine (incidence): DMSO solution (DMSO alone 10/10); for Onset time: time of LORR; for Adverse reactions: Tremor (incidence): animals affected/animals
Protocol: Comparison of Pharmacological Characteristics of the Compounds at Equivalent Doses (2×ED50) in Rats
Adult male Sprague-Dawley rats (250-300 g) were selected for the experiment (n=8). […] The drugs were administered at a dose twice their ED50 through the tail vein of rats in a volume of 0.6 mL and at a rate of 0.1 mL/s. In addition, the time of LORR was recorded as the onset time of anesthesia. […] Furthermore, the duration of the pharmacological effects is sufficient to meet the time requirements for rapid induction of general anesthesia and for diagnostic examinations, some short invasive clinical examinations, or operations.

| SMILES | ED50 (rats [1]) | Approximate therapeutic index (rats [2]) | Minimal lethal dose (rats [2]) | Righting reflex duration (rats [3]) | Adverse reactions: Red urine (incidence) (rats [3]) | Onset time (rats [3]) | Adverse reactions: Tongue stretching (incidence) (rats [3]) | Adverse reactions: Myoclonus (incidence) (rats [3]) | Adverse reactions: Tremor (incidence) (rats [3]) | ED50 (mg/kg) (rats [1]) | Sedation duration (mg/kg) (rats [3]) | Adverse reactions: Restlessness (incidence) (rats [3]) |
| --- | --- | --- | --- | --- | --- | --- | --- | --- | --- | --- | --- | --- |
| C=C=CC1(SC(=O)c2cncn2[C@H](C)c2ccccc2)COC1 [Compound D33] | 0.5 to 1 mg/kg | >10 | >8 mg/kg | 0.92 ± 0.33 min | Red urine (8/8) | 0.71 ± 0.22 min |  |  |  |  |  |  |
| [2H]C#CC(C)(C)OC(=O)c1cncn1[C@H](C)c1ccccc1 [Compound D16] | 0.5 to 1 mg/kg | >12 | >6 mg/kg | 1.17 ± 0.98 min | Red urine (8/8) | 0.36 ± 0.19 min |  |  |  |  |  |  |
| CC#CC(C)OC(=O)c1cncn1[C@H](C)c1ccccc1 (some centres unmarked) [Compound D32] | 0.1 to 0.5 mg/kg | >16 | >5 mg/kg | 2.14 ± 1.23 min | Red urine (8/8) | 0.49 ± 0.23 min | Tongue stretching (2/8), |  |  |  |  |  |
| C=CCC1(OC(=O)c2cncn2[C@H](C)c2ccccc2)CCC1 [Compound D12] | 0.5 to 1 mg/kg | >14 | >10 mg/kg | 2.15 ± 1.03 min | Red urine (8/8) | 0.32 ± 0.09 min |  |  |  |  |  |  |
| C=C(C)CC1(OC(=O)c2cncn2[C@H](C)c2ccccc2)CCC1 [Compound D26] | 0.1 to 0.5 mg/kg | >10 | >4 mg/kg | 1.36 ± 0.52 min | urine (8/8) | 0.56 ± 0.19 min |  | Myoclonus (3/8), Red |  |  |  |  |
| C[C@H](c1ccccc1)n1cncc1C(=O)OCC1(C)CSC1 [Compound B8] | 0.5 to 1 mg/kg | >10 | >10 mg/kg | 5.00 ± 1.25 min | Red urine (8/8) | 0.13 ± 0.05 min |  |  |  |  |  |  |
| CC#CC1(OC(=O)c2c(F)ncn2[C@H](C)c2ccccc2)CSC1 [Compound E91] | 0.5 to 1 mg/kg | >6 | >20 mg/kg | 1.24 ± 0.63 min | (8/8) | 0.48 ± 0.21 min |  |  |  |  |  |  |
| C#CC1(OC(=O)c2cncn2[C@H](C)c2ccccc2)CSC1 [Compound D27] | 0.5 to 1 mg/kg | >10 | >10 mg/kg | 2.15 ± 1.03 min | Red urine (8/8) | 0.32 ± 0.09 min |  |  |  |  |  |  |
| C=C=CC(CC)OC(=O)c1c(F)ncn1[C@H](C)c1ccccc1 (some centres unmarked) [Compound E77] | 0.5 to 1 mg/kg | >12 | >10 mg/kg | 1.90 ± 0.74 min | urine (8/8) | 0.11 ± 0.03 min |  |  | (2/8), Red |  |  |  |
| C[C@H](c1ccccc1)n1cnc(F)c1C(=O)OC1CC1 [Compound E34] | 0.1 to 0.5 mg/kg | >12 | >2 mg/kg | 1.78 ± 1.09 min | (8/8) | 0.29 ± 0.20 min | (1/8), |  |  |  |  |  |
| C#CC1(OC(=O)c2c(F)ncn2[C@H](C)c2ccccc2)COC1 [Compound E4] |  | >20 | >10 mg/kg | 4.38 ± 1.29 min | (8/8) | 0.45 ± 0.05 min |  |  |  | B (B means that the measured ED50 is in the range of 0.10-0.50 mg/kg (excluding 0.10 mg/kg, including 0.50 mg/kg).) | 10.65 ± 1.31 |  |
| CC#CC(C)(C)OC(=O)c1cncn1[C@H](C)c1ccccc1 [Compound D31] | 0.5 to 1 mg/kg | >13 | >9 mg/kg | 2.65 ± 1.10 min | Red urine (8/8) | 0.41 ± 0.15 min |  |  |  |  |  |  |
| C[C@H](c1ccccc1)n1c(Cl)nc(Cl)c1C(=O)OC1COC1 [Compound E132] | 0.5 to 1 mg/kg | >14 | >10 mg/kg | 2.70 ± 1.15 min | urine (8/8) | 0.18 ± 0.06 min |  |  |  |  |  | (2/8), Red |
| C=CC(CC)(CC)OC(=O)c1cncn1[C@H](C)c1ccccc1 [Compound D24] | 0.5 to 1 mg/kg | >13 | >7 mg/kg | 0.80 ± 0.20 min | Red urine (8/8) | 0.56 ± 0.31 min |  |  |  |  |  |  |
| C[C@H](c1ccccc1)n1cncc1C(=O)OC1(CC2CO2)COC1 (some centres unmarked) [Compound B22] | 0.5 to 1 mg/kg | >10 | >17 mg/kg | 1.24 ± 0.12 min | 8/8 | 0.92 ± 0.14 min |  |  | 4/8 |  |  |  |
| CC#CC1(OC(=O)c2cncn2[C@H](C)c2ccccc2)CSC1 [Compound D29] | 0.5 to 1 mg/kg | >13 | >10 mg/kg | 1.19 ± 0.64 min | (8/8) | 0.73 ± 0.10 min |  |  | Tremor (3/8), Red urine |  |  |  |
